Read-outs that look alike come from different tables or passages of the source.
Tests used:
Assay in all cases: Ellman assay, […] nm
Assay type in all cases: biochemical
[1] = target: T1, hBChE (human butyrylcholinesterase) (Homo sapiens, UniProt P06276)
T1 construct: gene BCHE

[2] = target: T2, hAChE (human acetylcholinesterase) (Homo sapiens, UniProt P22303)
T2 construct: gene ACHE

[3] = target: T1, hBChE (human butyrylcholinesterase); remark: listed apart in the source

T2 sequence (P22303 32-614): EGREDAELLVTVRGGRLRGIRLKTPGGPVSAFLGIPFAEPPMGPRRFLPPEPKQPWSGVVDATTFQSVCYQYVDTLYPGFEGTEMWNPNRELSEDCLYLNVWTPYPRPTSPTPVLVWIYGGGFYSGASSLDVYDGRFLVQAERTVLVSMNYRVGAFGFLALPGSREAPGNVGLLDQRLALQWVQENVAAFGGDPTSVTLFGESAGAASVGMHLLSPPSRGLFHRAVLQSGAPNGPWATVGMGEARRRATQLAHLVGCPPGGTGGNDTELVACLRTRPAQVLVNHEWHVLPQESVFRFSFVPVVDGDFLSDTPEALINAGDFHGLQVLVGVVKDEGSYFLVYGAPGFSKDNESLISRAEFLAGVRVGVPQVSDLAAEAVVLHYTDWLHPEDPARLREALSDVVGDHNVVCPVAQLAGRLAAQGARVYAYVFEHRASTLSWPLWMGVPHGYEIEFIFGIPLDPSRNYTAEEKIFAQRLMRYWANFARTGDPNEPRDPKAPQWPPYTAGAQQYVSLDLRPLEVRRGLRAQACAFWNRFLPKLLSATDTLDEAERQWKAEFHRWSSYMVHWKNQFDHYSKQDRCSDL
T1 sequence (P06276 29-602): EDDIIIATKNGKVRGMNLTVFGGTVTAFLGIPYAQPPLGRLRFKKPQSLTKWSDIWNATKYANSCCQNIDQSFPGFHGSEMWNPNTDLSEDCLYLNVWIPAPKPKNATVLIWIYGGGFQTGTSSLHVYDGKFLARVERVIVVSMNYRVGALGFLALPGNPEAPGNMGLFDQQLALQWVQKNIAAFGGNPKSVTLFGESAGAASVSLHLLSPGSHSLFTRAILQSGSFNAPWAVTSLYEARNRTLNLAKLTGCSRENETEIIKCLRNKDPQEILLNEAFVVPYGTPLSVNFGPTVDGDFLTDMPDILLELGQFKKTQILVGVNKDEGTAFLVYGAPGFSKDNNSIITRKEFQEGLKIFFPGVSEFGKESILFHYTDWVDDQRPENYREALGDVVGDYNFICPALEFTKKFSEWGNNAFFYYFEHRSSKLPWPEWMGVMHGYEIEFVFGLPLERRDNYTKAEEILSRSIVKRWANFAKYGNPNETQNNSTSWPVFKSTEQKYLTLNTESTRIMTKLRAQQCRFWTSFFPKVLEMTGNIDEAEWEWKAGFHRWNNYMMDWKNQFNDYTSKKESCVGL

Question: For `C#CCCCCCCCCCN(C)C(=O)F` [3i, Methyl(undec-10-yn-1-yl)carbamic Fluoride], which IC50 [1] is on record?
Answer: 197 ± 36 nM

Question: What about the IC50 [2] of the same compound?
Answer: 5070 ± 1150 nM

Question: For `O=C(F)N1CCc2ccccc21` [3d, Indoline-1-carbonyl Fluoride], which IC50 ([2]; read-out: hAChE) is on record?
Answer: 4620 ± 1150 nM

Question: What about the activity at 100 µM [3] of the same compound?
Answer: 56.2 ± 3.7%

Question: How did the IC50 ([1]; read-out: hBChE) turn out when `CN(C(=O)F)c1cccc2cc[nH]c12` [3k, (1H-Indol-7-yl)(methyl)carbamic Fluoride] was run?
Answer: 5.56 ± 0.83 nM

Question: What about the IC50 ([2]; read-out: hAChE) of the same compound?
Answer: 151 ± 8 nM

Question: For `O=C(F)N1CCc2ccccc2C1` [3f, 3,4-Dihydroisoquinoline-2(1H)-carbonyl Fluoride], which IC50 ([1]; read-out: hBChE) is on record?
Answer: 707 ± 122 nM

Question: And the IC50 ([2]; read-out: hAChE)?
Answer: 22600 nM

Question: `CN(Cc1ccccc1)C(=O)F` [3a, Benzyl(methyl)carbamic Fluoride] was tested. Which IC50 ([1]; read-out: hBChE) did it give?
Answer: 156 ± 9 nM

Question: What about the IC50 ([2]; read-out: hAChE) of the same compound?
Answer: 5650 ± 947 nM

Question: What does the source list for `O=C(F)N1CCC(c2c[nH]c3ccccc23)CC1` [3h, 4-(1H-Indol-3-yl)piperidine-1-carbonyl Fluoride]?
Answer: IC50 [1]: 23.5 ± 4.6 nM; IC50 [2]: 18700 nM

Question: `CCCCN(Cc1ccccc1)C(=O)F` [3c, Benzyl(butyl)carbamic Fluoride] was tested. Which IC50 [1] did it give?
Answer: 2430 ± 400 nM

Question: What about the IC50 [2] of the same compound?
Answer: 4480 ± 1140 nM

Question: How did the IC50 ([1]; read-out: hBChE) turn out when `O=C(F)N(Cc1ccccc1)Cc1ccccc1` [3b, Dibenzylcarbamic Fluoride] was run?
Answer: 69.6 ± 4 nM

Question: What about the IC50 ([2]; read-out: hAChE) of the same compound?
Answer: 2200 ± 270 nM

Question: Which IC50 [1] does the source give for `O=C(F)N1CCN(c2ccccc2F)CC1` [3j, 4-(2-Fluorophenyl)piperazine-1-carbonyl Fluoride] here?
Answer: 656 ± 32 nM

Question: What about the IC50 [2] of the same compound?
Answer: 10700 nM

Question: `O=C(F)N1CCC(Cc2ccccc2)CC1` [3g, 4-Benzylpiperidine-1-carbonyl Fluoride] was tested. Which IC50 ([1]; read-out: hBChE) did it give?
Answer: 2.78 ± 0.15 nM

Question: And the IC50 ([2]; read-out: hAChE)?
Answer: 554 ± 79 nM

Question: For `O=C(F)N1Cc2ccccc2C1` [3e, Isoindoline-2-carbonyl Fluoride], which IC50 ([1]; read-out: hBChE) is on record?
Answer: 32200 nM

Question: And the IC50 ([2]; read-out: hAChE)?
Answer: 103000 nM
